Measurements taken from US10596127B2, “Composition for reducing the frequency of urination, method of making and use thereof” (WELLESLEY PHARMACEUTICALS, LLC, priority 2013, dated 2020).

Assays:
[1] = tested on: expression of co-stimulatory molecules by Raw 264 macrophage cells; test: Flow cytometry of co-stimulatory molecules CD40 and CD80 on macrophages treated with analgesic, with or without LPS; type: cell-based, Murine; settings: LPS 5 ng/ml alone, no analgesic; negative control 20.6
Description: Murine RAW264.7 or J774 macrophage cells (obtained from ATCC) were used in this study. Cells were maintained in a culture medium containing RPMI 1640 supplemented with 10% fetal bovine serum (FBS), 15 mM HEPES, 2 mM L-glutamine, 100 U/ml penicillin, and 100 μg/ml of streptomycin. Cells were cultured at 37° C. in a 5% CO2 atmosphere and split (passages) once a week.
RAW264.7 macrophage cells were seeded in 96-well plates at a cell density of 1.5×10^5 cells per well in 100 μl of the culture medium. […] Briefly, the analgesics were dissolved in FBS-free culture medium (i.e., RPMI 1640 supplemented with 15 mM HEPES, 2 mM L-glutamine, 100 U/ml penicillin, and 100 μg/ml of streptomycin), and diluted to desired concentrations by serial dilution with the same medium. For cells treated with analgesic in the absence of LPS, 50 μl of analgesic solution and 50 μl of FBS-free culture medium were added to each well. For cells treated with analgesic in the presence of LPS, 50 μl of analgesic solution and 50 μl of LPS (from Salmonella typhimurium) in FBS-free culture medium were added to each well. All conditions were tested in duplicates.
After 24 or 48 hours of culture, 150 μl of culture supernatants were collected, spun down for 2 min at 8,000 rpm at 4° C. to remove cells and debris and stored at −70° C. for analysis of cytokine responses by ELISA. The cells were collected and washed by centrifugation (5 min at 1,500 rpm at 4° C.) in 500 μl of Phosphate buffer (PBS). Half of the cells were then snap frozen in liquid nitrogen and stored at −70° C. The remaining cells were stained with fluorescent monoclonal antibodies and analyzed by flow cytometry.
For flow cytometry analysis, macrophages were diluted in 100 μl of FACS buffer (phosphate buffered saline (PBS) with 2% bovine serum albumin (BSA) and 0.01% NaN3) and stained 30 min at 4° C. by addition of FITC-conjugated anti-CD40, PE-conjugated anti-CD80, PE-conjugated anti-CD86 antibody, anti MHC class II (I-A^d) PE (BD Bioscience). Cells were then washed by centrifugation (5 min at 1,500 rpm at 4° C.) in 300 μl of FACS buffer. After a second wash, cells were re-suspended in 200 μl of FACS buffer and the percentage of cells expressing a given marker (single positive), or a combination of markers (double positive) were analyzed with the aid of an Accuri C6 flow cytometer (BD Biosciences).

[2] = tested on: COX2 expression by normal human bladder smooth muscle cells; test: Cell-based ELISA of total COX2 in normal human bladder smooth muscle cells
Description: COX2 responses were analyzed by a Cell-Based ELISA using Human/mouse total COX2 immunoassay (R&D Systems), following the instructions of the manufacturer. Briefly, after cells fixation and permeabilization, a mouse anti-total COX2 and a rabbit anti-total GAPDH were added to the wells of the clear-bottom black 96-well cell culture microculture plates. After incubation and washes, an HRP-conjugated anti-mouse IgG and an AP-conjugated anti-rabbit IgG were added to the wells. Following another incubation and set of washes, the HRP- and AP-fluorogenic substrates were added. Finally, a Victor® V multilabel plate reader (PerkinElmer) was used to read the fluorescence emitted at 600 nm (COX2 fluorescence) and 450 nm (GAPDH fluorescence). Results are expressed as relative levels of total COX2 as determined by relative fluorescence unit (RFUs) and normalized to the housekeeping protein GAPDH.
(§1) Normal human bladder smooth muscle cells were isolated by enzymatic digestion from macroscopically normal pieces of human bladder. Cells were expended in vitro by culture at 37° C. in a 5% CO2 atmosphere in RPMI 1640 supplemented with 10% fetal bovine serum, 15 mM HEPES, 2 mM L-glutamine, 100 U/ml penicillin, and […] of streptomycin and passage once a week by treatment with trypsin to detach cells followed by reseeding in a new culture flask. The first week of culture, the culture medium was supplemented with 0.5 ng/ml epidermal growth factor, 2 ng/ml fibroblast growth factor, and 5 μg/ml insulin.
(§2) […] When no other effectors were added to the cells, 50 μl of RPMI 1640 without fetal bovine serum were added to the wells to adjust the final volume to 200 μl.
(§3) After 24 hours of culture, 150 μl of culture supernatants were collected, spun down for 2 min at 8,000 rpm at 4° C. to remove cells and debris and stored at −70° C. for analysis of Prostaglandin E2 (PGE2) responses by ELISA. Cells were fixed, permeabilized and blocked for detection of COX2 using a fluorogenic substrate. In selected experiment cells were stimulated 12 hours in vitro for analysis of COX2, PGE2 and cytokine responses.
(§4) COX2 and PGE2 responses were analyzed as described in Example 3. Cytokine responses were analyzed as described in Example 2.

[3] = tested on: PGE2 secretion by normal human bladder smooth muscle cells; test: PGE2 ELISA of normal human bladder smooth muscle cell supernatants; type: cell-based
Description: Prostaglandin E2 responses were analyzed by a sequential competitive ELISA (R&D Systems). More specifically, culture supernatants or PGE2 standards were added to the wells of a 96-well polystyrene microplate coated with a goat anti-mouse polyclonal antibody. After one hour incubation on a microplate shaker, an HRP-conjugated PGE2 was added and plates incubated for an additional two hours at room temperature. The plates were then washed and HRP substrate solution added to each well. The color was allowed to develop for 30 min and the reaction stopped by addition sulfuric acid before reading the plate at 450 nm with wavelength correction at 570 nm. Results are expressed as mean pg/ml of PGE2.
as §1, §2, §3, §4

[4] = tested on: TNFα secretion by normal human bladder smooth muscle cells; test: TNFα ELISA of normal human bladder smooth muscle cell supernatants; type: cell-based; settings: no analgesic
Description: (§5) Culture supernatants were subjected to cytokine-specific ELISA to determine IL-1β, IL-6 and TNF-α responses in cultures of macrophages treated with analgesic, LPS alone or a combination of LPS and analgesic. The assays were performed on Nunc MaxiSorp Immunoplates (Nunc) coated overnight with 100 μl of anti-mouse IL-6, TNF-α mAbs (BD Biosciences) or IL-1β mAb (R&D Systems) in 0.1 M sodium bicarbonate buffer (pH 9.5). After two washes with PBS (200 μl per well), 200 μl of PBS 3% BSA were added in each well (blocking) and the plates incubated for 2 hours at room temperature. Plates were washed again two times by addition of 200 μl per well, 100 μl of cytokine standards and serial dilutions of culture supernatants were added in duplicate and the plates were incubated overnight at 4° C. Finally, the plates were washed twice and incubated with 100 μl of secondary biotinylated anti-mouse IL-6, TNFα mAbs (BD Biosciences) or IL-1β (R&D Systems) followed by peroxidase-labelled goat anti-biotin mAb (Vector Laboratories). The colorimetric reaction was developed by the addition of 2,2′-azino-bis(3)-ethylbenzylthiazoline-6-sulfonic acid (ABTS) substrate and H2O2 (Sigma) and the absorbance measured at 415 nm with a Victor® V multilabel plate reader (PerkinElmer).
as §1
(§6) Bladder smooth muscle cells trypsinized and seeded in microculture plates at a cell density of 3×10^4 cells per well in 100 μl were treated with analgesic solutions (50 μl/well) either alone or together carbachol (10-Molar, 50 μl/well), as an example of non-inflammatory stimuli, or lipopolysaccharide (LPS) of Salmonella typhimurium (1 μg/ml, 50 μl/well), as an example of […] stimuli. When no other effectors were added to the cells, 50 μl of RPMI 1640 without fetal bovine serum were added to the wells to adjust the final volume to 200 μl.
as §3, §4

[5] = tested on: IL-6 secretion by normal human bladder smooth muscle cells; test: IL-6 ELISA of normal human bladder smooth muscle cell supernatants; type: cell-based; settings: no analgesic
Description: as §5, §1, §6, §3, §4

[6] = tested on: TNFα secretion by normal human bladder smooth muscle cells; test: TNFα ELISA of normal human bladder smooth muscle cell supernatants; type: cell-based; settings: stimulus alone, no analgesic (Carbachol 10^−3 M; LPS 10 μg/ml); unstimulated <5
[7] = tested on: IL-6 secretion by normal human bladder smooth muscle cells; test: IL-6 ELISA of normal human bladder smooth muscle cell supernatants; type: cell-based; settings: stimulus alone, no analgesic (Carbachol 10^−3 M; LPS 10 μg/ml); unstimulated <5
[8] = stimulus alone, no analgesic (Carbachol 10^−3 M; LPS 10 μg/ml), unstimulated <20.5

Substance: lipopolysaccharide [LPS]
- % Positive CD40+CD80+ [1]: 77.8%
- COX2 responses to stimulus alone ([2]; no analgesic): higher levels of COX2 responses
- Total COX2 levels (Normalized RFUs) subject 2 ([2]; stimulus alone, no analgesic (Carbachol 10^−3 M; LPS 10 μg/ml), unstimulated 199): 633 Normalized RFUs
- Total COX2 levels (Normalized RFUs) subject 1 ([2]; stimulus alone, no analgesic (Carbachol 10^−3 M; LPS 10 μg/ml), unstimulated 230): 672 Normalized RFUs
- PGE2 production in response to stimulus alone ([3]; no analgesic): induced production of PGE2
- PGE2 levels (pg/ml) Subject 1 [3, 8]: 1125 pg/mL
- PGE2 levels (pg/ml) Subject 2 [3, 8]: 998 pg/mL
- TNFα responses to stimulus alone [4]: massive induction
- IL-6 responses to stimulus alone [5]: massive induction
- TNFα (pg/ml) Subject 1 [6]: 5725 pg/mL
- TNFα (pg/ml) Subject 2 [6]: 4107 pg/mL
- IL-6 (pg/ml) Subject 1 [7]: 4838 pg/mL
- IL-6 (pg/ml) Subject 2 [7]: 4383 pg/mL
